From patent publication US20110104121A1, “Female Reproductive Tract and Anal Prophylaxes” (priority 2008, published 2011)

Assays:
[1] = test system: HIV-1 R5/M-tropic BaL; experiment: TZM-bl infectivity assay, HIV-1 BaL; format: cell-based; conditions: for post-infection inhibition, BaL: 20 ng/mL
Experimental: (§1) The TZM indicator cell line is a HeLa cell derivative that expresses high levels of CD4, CCR5 and CXCR4 (Wei, et al. (2002) Antimicrob. Agents Chemother. 46(6):1896-905). The cells contain HIV long terminal repeat (LTR)-driven β-galactosidase and luciferase reporter cassettes that are activated by HIV tat expression.
(§2) TZM cells were seeded at 2×10^4 cells per well in a 96-well microtiter plate and allowed to adhere overnight at 37° C. Varying doses of recombinant human Trappin-2/Elafin (Peprotech, Rocky Hill, N.J.) were incubated with HIV-1 IIIB and BaL at multiplicity of infection (MOI) 1 for 1 hour at 37° C. in a final volume of 100 μl. Following incubation, the media was aspirated from TZM cells and the virus plus Trappin-2/Elafin was added to the cells along with 100 μl of TZM media. Luciferase activity was measured after 48 hours at 37° C. with 5% CO2 in a humidified incubator. Briefly, the supernatants were aspirated, and the cells were lysed with a BETA GLO luciferase assay substrate. Light intensity of each well was measured using a luminometer. Uninfected cells were used to determine background luminescence. All infectivity assays were performed in quadruplicate.
(§3) Other experiments were conducted in order to determine whether the inhibitory effects of Trappin-2/Elafin were at the cell surface level such as the blocking of a co-receptor. For these experiments, varying doses of Trappin-2/Elafin were directly added to TZM cells and incubated for 1 hour at 37° C. prior to washing with 1×PBS and addition of IIIB or BaL viruses. In additional experiments to determine possible post-infection mechanisms of inhibition by Trappin-2/Elafin, TZM cells were infected with HIV-1 IIIB and BaL at MOI 1 and were washed at 6 hours and 24 hours post-infection followed by the addition of 10 ng/ml rTrappin-2/Elafin. Assays were developed at 48 hours by addition of the BETA-GLO substrate and measuring relative light units using a luminometer.
(§4) Since HIV-1 is an important sexually transmitted pathogen, the activity of recombinant Trappin-2/Elaf in (rTrappin-2/Elafin) was evaluated against HIV-1 X4/T-tropic IIIB and R5/M-tropic BaL. HIV-1 IIIB and BaL were incubated with rTrappin-2/Elafin at 0.01, 0.1, 1, and 10 ng/ml for 1 hour at 37° C. TZM-bl indicator cells were plated the previous day at 25,000 cells per well and grown to 70-80% confluence. The virus-Trappin-2/Elafin mixture was added to the TZM cells and incubated for 48 hours at 37° C. At the end of the incubation period, BETA-GLO substrate was added to the cells and viral infection was quantified using a luminometer, expressed as relative light units (RLU). The data was expressed as percent of control with virus-only control set at 100%. […] Therefore, the concentrations of Trappin-2/Elafin showing anti-HIV-1 activity were in the range of physiological levels of this molecule that were secreted by the FRT epithelial cells. Since the inhibitory activity was observed as a result of pre-incubation of HIV-1 and rTrappin-2/Elafin, it is contemplated that the effect of Trappin-2/Elafin on viral infection was direct. […]
(§5) Laboratory-adapted viral strains HIV-1 IIIB (×4) and BaL (R5) were obtained and virus stocks were propagated in PHA-stimulated human PBMC and stored frozen at −80° C. Virus stocks produced in PBMC of molecularly cloned HIV-1 NL4.3 (×4; lab-adapted) and YU-2.c (R5; directly cloned without culture) were obtained. Virus titers were determined on TZM-bl cells as described herein. Also used was a PBMC-derived virus stock of pCH077.c, a recently generated Clade B infectious molecular clone matching the nucleotide sequence determined to be the transmitted/founder virus sequence of CHAVI subject 700010077. […]

[2] = test system: HIV-1 X4/T-tropic IIIB; experiment: TZM-bl infectivity assay, HIV-1 IIIB; format: cell-based
Experimental: as §1, §2, §3, §4, §5

[3] = systemic inflammatory response to E. coli endotoxin after hydrocortisone pre-treatment in volunteers; format: in vivo, human; conditions: for plasma G-CSF concentrations after LPS, vs Control Group: multiplex immunobead
Source text: Materials and Methods. Participants (n=36) were healthy male and female volunteers who were taking no chronic medications (other than oral contraceptives) and who were between the ages of 18 and 55.
On Day 1 of the study, participants were randomized in a double-blind manner to a Control Group, a Stress Group or a Pharm Group. A peripheral intravenous catheter was inserted in a hospital outpatient facility where participants remained during the day. For six hours, Control Group participants received intravenous saline at […] by infusion pump; Stress Group participants received 1.5 μg/kg/minute hydrocortisone (SOLUCORTEF®, Upjohn) in normal saline at 10 ml/hour, and Pharm Group participants received 3.0 μg/kg/minute hydrocortisone in normal saline at 10 ml/hour. The following day (Day 2), participants were admitted to an acute care facility where a peripheral intravenous catheter was again inserted in a proximal arm vein. Continuous electrocardiographic and pulse oximetry measurements were initiated; blood pressure and core temperature were measured every 15 minutes for the next five hours and every 30 minutes for the next 4 hours. Participants received 10 ml/kg lactated Ringer's solution intravenously over the first 2 hours after which the infusion was decreased to 1.5 ml/kg/hour. After the first hour, participants were administered 2 ng/kg E. coli endotoxin intravenously over 2 minutes. Participants remained in the acute care facility for remainder of the day with continuous nursing care and under the direct supervision of a physician. The intravenous catheter was removed after 9 hours. The following day (Day 3) and 2 days later (Day 5), repeat blood samples were obtained by venipuncture.
Salivary free cortisol measurements were made on Day 1 to compare the in vivo cortisol pre-treatment with laboratory reports that typically test the effects of free glucocorticoid concentrations. On Day 2 of the study, total plasma cortisol was measured to allow for comparison with the many clinical reports that have assessed these hormones during experimental endotoxemia and in endotoxemic patients. For salivary free cortisol measurements, saliva samples were collected with a […]™ collection device and stored at −80° C. until analysis by SALIMETRICS® Expanded Range High Sensitivity Salivary Cortisol Enzyme Immunoassay Kit (State College, Pa.). The analytical sensitivity of this assay is 3 ng/dL. For total cortisol, plasma was separated from heparinized whole blood and stored at −80° C. until analysis for plasma cortisol on an […]® 1000 analyzer using a Siemens Cortisol kit (Los Angeles, Calif.). The analytical sensitivity of this assay is 0.2 μg/dL. All adrenocorticotropic hormone (ACTH) measurements were performed on the […]® 1000 analyzer using a Siemens ACTH kit (Los Angeles, Calif.). The analytical sensitivity of this assay is 9 pg/mL. C-reactive protein (CRP) measurements were performed on the Roche P Module using the Roche High Sensitivity CRP kit (Indianapolis, Ind.). Analytical sensitivity of this assay is 0.1 mg/L. Complete blood counts were performed on the ADVIA 120® Hematology Analyzer using Siemens reagents (Ramsey, Minn.).
Plasma samples were collected and frozen at −80° C. for batched measurement of TNFalpha, IL-6 and IL-10 concentrations. TNFalpha was measured using a TNFalpha sandwich ELISA (paired antibodies; BD Biosciences Pharmingen, San Diego, Calif.). IL-6 levels were determined using an IL-6 ELISA kit (Peprotech, Rocky Hill, N.J.). IL-10 was measured using an IL-10 ELISA kit (Biosource, Camarillo, Calif.). Further cytokine testing was completed on frozen samples using multiplex immunobead technology (Luminex Corp.) which combines the principle of a sandwich immunoassay with fluorescent bead-based technology, allowing individual and multiplex analysis of multiple analytes in a single microtiter well. […]

[4] = test system: Monocytes-derived Dendritic cells (MDDCs); experiment: surface receptor expression on monocyte-derived dendritic cells, flow cytometry; format: cell-based, human
Experimental: Materials and Methods. Uterine epithelial cell line (ECC-1) was cultured according to established methods to establish cellular polarity with apical and basolateral compartments (Schaefer, et al. (2004) Immunology 112:428-436). The formation of tight junctions by the epithelial cell monolayer was routinely monitored by measurement of transepithelial resistance (TER) (Richardson, et al. (1995) Biol. Reprod. 53:488-498). […] The pooled media was centrifuged for 5 minutes at 10,000 g and stored at −80° C. for use in subsequent studies.
Peripheral blood mononuclear cells (PBMC) were obtained from residues of platelet pheresis according to known methods (Dietz, et al. (2006) Transfusion 46:2083-2089). Monocytes were subsequently enriched with Rosette Sep reagent (StemCell, Vancouver, BC). Blood specimens were from healthy adult males. Monocytes-derived Dendritic cells (MDDCs) were in vitro generated with GM-CSF (50 ng/ml) and IL-4 (50 ng/ml) (PeproTech Inc, Rocky Hill, N.J.) (Sallusto Lanzavecchia (1994) J. Exp. Med. 179:1109-1118). MDDCs were differentiated for 7 days in the presence or absence of 24-hour conditioned medium (1:1 dilution) obtained from ECC-1. In some experiments TGF-beta receptor 1 blocker, SB431542 (10 μM; Tocris Cookson, Inc., St. Louis, Mo.) (Eriksson, et al. (2006) Am. J. Reprod. Immunol. 56:321-328; Shen, et al. (2007) Clin. Exp. Immunol. 149(1):155-61) was simultaneously added with ECC-1 CM for the entire duration of the differentiation. As positive control for TGF-beta effects on MDDCs, experimental conditions were included in which MDDCs were differentiated with recombinant human TGF-beta1 at three different concentrations (0.1, 1 and 10 ng/mL) in the presence or absence of SB431542. Following 7 days of culture, cells were harvested, washed and subsequently used for flow cytometry analyses.
Following six days of in vitro differentiation, surface staining of MDDCs was performed with the following fluorochrome-labeled monoclonal antibodies: CD1a (HI149), CD14 (61D3), from Ebioscience (San Diego, Calif.); and CD163 (215927), CCR5 (45531), CXCR4 (12G5), DC-SIGN (120507) from R&D Systems (Minneapolis, Minn.). Matched isotype controls for the antibodies were used to control for non-specific binding. Following antibody staining, cells were washed with staining buffer and fixed with 2% methanol-free paraformaldehyde in 1×PBS (2% PFA), followed by analysis with a Becton Dickinson FACS CALIBUR (San Jose, Calif.). The acquired FACS data were analyzed by CELL QUEST (BD Biosciences).
Statistical analysis was performed using two-way analysis of variance (ANOVA) ([…] Prism Version 5.0; […] Software Inc., San Diego, Calif.). A value of P<0.05 was considered significant.

[5] = cells pre-incubated 1 hour, washed before virus
[6] = virus pre-incubated 1 hour with 2, 20, 200 ng/mL, 48 hours

rCCL20/MIP3α: recombinant human CCL20/MIP3α (Peprotech)
post-infection inhibition, BaL ([1]; added 6 hours post-infection): slight inhibition | post-infection inhibition, BaL ([1]; added 24 hours post-infection): no significant post-infection inhibition | inhibition of R5/BaL after pre-incubation of TZM cells [1, 5]: no significant inhibition | inhibition of R5/BaL [1, 6]: inhibited | post-infection inhibition, IIIB ([2]; added 6 and 24 hours post-infection, 20 ng/mL): no significant post-infection inhibition | inhibition of X4/IIIB after pre-incubation of TZM cells [2, 5]: no significant inhibition | inhibition of X4/IIIB [2, 6]: inhibited

C[C@]12CCC(=O)C=C1CC[C@@H]1[C@@H]2[C@@H](O)C[C@@]2(C)[C@H]1CC[C@]2(O)C(=O)CO [hydrocortisone]
release of early pro-inflammatory molecules ([3]; 1.5 μg/kg/minute at 10 ml/hr for six hours): significant enhancement | Plasma IL-6 after LPS, vs Control Group ([3]; Pharm 3 μg/kg/min): no difference | Plasma IL-10 after LPS, vs Control Group ([3]; Pharm 3 μg/kg/min): no difference | TNF-alpha concentrations in plasma after LPS, vs Control Group ([3]; Pharm 3 μg/kg/min): not significantly different | plasma G-CSF concentrations after LPS, vs Control Group ([3]; Pharm 3 μg/kg/min): no difference | TNF-alpha concentrations in plasma after LPS, vs Control Group ([3]; Stress 1.5 μg/kg/min): not significantly different | ACTH concentrations, vs Control Group ([3]; Stress 1.5 μg/kg/min, 3 and 4 hours after LPS injection): higher | plasma G-CSF concentrations after LPS, vs Control Group ([3]; Stress 1.5 μg/kg/min): significant augmentation | Plasma IL-6 after LPS, vs Control Group ([3]; Stress 1.5 μg/kg/min, p<0.005): significantly higher | Plasma IL-10 after LPS, vs Control Group ([3]; Stress 1.5 μg/kg/min, p<0.05): significantly lower

NC(=O)c1ccc(-c2nc(-c3ccc4c(c3)OCO4)c(-c3ccccn3)[nH]2)cc1 [SB431542]
modulatory effect of ECC-1 CM (suppression of DC-SIGN expression on MDDCs) ([4]; SB431542 10 μM added with ECC-1 CM during differentiation): abrogated | expression of CD1a by CM-DC ([4]; TGF-beta receptor blocker with ECC-1 CM): no significant effect | UEC conditioned medium effects on DC (enhanced CCR5 and CXCR4, suppressed DC-SIGN) ([4]; in vitro differentiation): abolished these effects
